Assay results from PMC8219695 (Nature Communications, 2021).
Several values for one entry are separate records, joined by “and”; a condition that tells them apart may be missing. Identical values can stand only once.

Columns and labels:
mMOR = molecular target: T1, mMOR (Mus musculus, UniProt P42866); assay: CAMYEL BRET cAMP agonist assay at mMOR; assay type: cell-based; conditions: mMOR; for cAMP %: single replicates, source data Fig 6b, listed as C11-Br-7OH (24)
T1 construct: signal peptide (heterologous, not specified) (N); expressed in transfected cells; pcDNA3.1(+) construct made in house
T1 sequence (P42866 whole entry): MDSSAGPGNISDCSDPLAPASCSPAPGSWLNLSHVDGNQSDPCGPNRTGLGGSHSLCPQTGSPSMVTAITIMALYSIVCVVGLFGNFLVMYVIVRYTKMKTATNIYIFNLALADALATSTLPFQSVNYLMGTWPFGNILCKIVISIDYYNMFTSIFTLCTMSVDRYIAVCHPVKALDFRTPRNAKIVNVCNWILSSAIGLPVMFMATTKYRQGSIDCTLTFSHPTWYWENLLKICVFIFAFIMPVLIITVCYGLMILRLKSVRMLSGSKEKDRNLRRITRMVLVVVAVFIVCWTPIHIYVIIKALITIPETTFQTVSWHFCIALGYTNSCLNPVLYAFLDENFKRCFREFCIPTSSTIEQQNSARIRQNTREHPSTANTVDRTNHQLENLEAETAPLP

hMOR [1] = molecular target: T2, hMOR (Homo sapiens, UniProt P35372); assay: cell-based
T2 construct: expressed in transfected cells; plasmid a gift from Dr. Nevin Lambert
T2 sequence (P35372 whole entry): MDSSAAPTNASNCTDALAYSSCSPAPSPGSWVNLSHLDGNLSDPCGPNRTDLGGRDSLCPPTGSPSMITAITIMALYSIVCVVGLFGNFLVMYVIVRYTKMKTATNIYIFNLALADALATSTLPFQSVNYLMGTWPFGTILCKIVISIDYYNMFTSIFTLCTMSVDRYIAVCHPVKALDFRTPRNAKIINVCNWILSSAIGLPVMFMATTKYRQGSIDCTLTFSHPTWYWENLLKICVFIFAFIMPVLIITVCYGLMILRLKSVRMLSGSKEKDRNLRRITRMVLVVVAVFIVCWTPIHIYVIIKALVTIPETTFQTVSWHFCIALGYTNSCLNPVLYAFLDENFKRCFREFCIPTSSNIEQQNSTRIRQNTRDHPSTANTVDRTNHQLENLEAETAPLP

hMOR [2] = molecular target: T2, hMOR; assay: CAMYEL BRET cAMP agonist assay at hMOR; assay type: cell-based; conditions: for cAMP %: hMOR, single replicates, source data Fig 6c, listed as C11-Br-7OH (24)
mDOR = molecular target: T3, mDOR (Mus musculus, UniProt P32300); assay: CAMYEL BRET cAMP agonist assay at mDOR; assay type: cell-based; conditions: for Agonist activity of 7OH analogs at mDOR: single replicate values, Supplementary Figure 7B
T3 construct: expressed in transfected cells
T3 sequence (P32300 whole entry): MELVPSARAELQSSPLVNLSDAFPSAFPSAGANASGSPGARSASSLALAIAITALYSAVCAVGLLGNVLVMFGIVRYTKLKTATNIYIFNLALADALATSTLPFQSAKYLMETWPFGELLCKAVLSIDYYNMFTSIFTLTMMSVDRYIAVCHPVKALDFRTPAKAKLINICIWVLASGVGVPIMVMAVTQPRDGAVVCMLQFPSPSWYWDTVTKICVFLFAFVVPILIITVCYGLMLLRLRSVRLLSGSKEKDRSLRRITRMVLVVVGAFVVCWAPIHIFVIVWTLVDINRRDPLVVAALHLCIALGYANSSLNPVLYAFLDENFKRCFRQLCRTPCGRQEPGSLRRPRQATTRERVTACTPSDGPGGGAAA

rKOR = molecular target: T4, rKOR (Rattus norvegicus, UniProt P34975); assay: CAMYEL BRET cAMP agonist assay at rKOR; assay type: cell-based; conditions: individual replicates, Supplementary Figure 8B source data
T4 construct: expressed in transfected cells
T4 sequence (P34975 whole entry): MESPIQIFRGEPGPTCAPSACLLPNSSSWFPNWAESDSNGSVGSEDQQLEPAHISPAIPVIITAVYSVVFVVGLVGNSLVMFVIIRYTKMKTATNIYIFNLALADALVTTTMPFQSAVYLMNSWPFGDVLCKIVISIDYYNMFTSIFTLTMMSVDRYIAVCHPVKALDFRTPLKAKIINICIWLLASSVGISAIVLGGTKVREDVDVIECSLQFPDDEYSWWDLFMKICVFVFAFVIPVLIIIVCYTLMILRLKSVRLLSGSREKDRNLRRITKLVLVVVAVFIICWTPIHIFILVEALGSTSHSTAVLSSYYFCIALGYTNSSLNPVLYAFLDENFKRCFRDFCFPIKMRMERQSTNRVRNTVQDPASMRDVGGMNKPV

[3] = Log[drug] (M) -13, cAMP inhibition as % of DAMGO

Question: With `CC[C@@H]1CN2CC[C@@]3(O)C(=Nc4cc(Br)cc(OC)c43)[C@@H]2C[C@@H]1/C(=C\OC)C(=O)OC` [11-Br-7OH (24), 11-Br-7OH] as the compound, how does the cAMP % (mMOR; Log[drug] (M) -5) read?
Answer: Its cAMP % is 9.013% and 6.73% and 3.065% and 5.631% and 1.057% and 0.04315% and 7.004% and 14.1806% and 4.634%.

Question: And the cAMP % (mMOR; Log[drug] (M) -6)?
Answer: Its cAMP % is 5.8044% and 1.851% and 7.958% and 11.2571% and 3.589% and -1.762% and 6.0175% and 2.324% and 0.676%.

Question: And the cAMP % (mMOR; Log[drug] (M) -7)?
Answer: The cAMP % was -3.894% and -5.88% and 9.775% and 0.4502% and 1.258% and -1.708% and 1.616% and 1.4183% and 0.1827%.

Question: What about the cAMP % (mMOR; Log[drug] (M) -8) of the same compound?
Answer: The cAMP % was 1.549% and 0.05958% and 0.01199% and -1.248% and 2.618% and 1.046% and 3.634% and 0.478% and 3.5882%.

Question: What about the cAMP % (mMOR; Log[drug] (M) -9) of the same compound?
Answer: The cAMP % was 13.8914% and 20.7075% and 0.6937% and 7.1213% and -0.7937% and 5.232% and 4.985% and -2.644% and 5.425%.

Question: What about the cAMP % (mMOR; Log[drug] (M) -10) of the same compound?
Answer: Its cAMP % is 10.1801% and 15.9014% and 8.011% and 8.742% and 7.948% and 6.092% and 2.318% and -3.2024% and 3.127%.

Question: And the cAMP % (mMOR; Log[drug] (M) -11)?
Answer: Its cAMP % is 14.2135% and 8.364% and 1.552% and 8.664% and 7.808% and 10.8013% and 0.4413% and -1.089% and 0.6474%.

Question: What about the cAMP % (mMOR; [3]) of the same compound?
Answer: The cAMP % was 6.348% and 21.1377% and 5.87% and 7.068% and 6.954% and 15.1455% and 5.75% and 5.389% and 3.7452%.

Question: And the Emax (mMOR; maximal inhibitory effect on cAMP levels relative to DAMGO)?
Answer: Its Emax is < 10%.

Question: What about the IC50 (hMOR [1]) of the same compound?
Answer: Its IC50 is 1.97 µM.

Question: And the EC50 (hMOR [2])?
Answer: Its EC50 is 0.401 µM.

Question: And the Emax (hMOR [2])?
Answer: Its Emax is 14%.

Question: What about the cAMP % (hMOR [2]; Log[drug] (M) -5) of the same compound?
Answer: The cAMP % was 14.6374% and 26.5598% and 13.4593% and 12.3793% and 6.1202% and 3.5813% and 27.8092% and 3.652% and 6.737%.

Question: And the cAMP % (hMOR [2]; Log[drug] (M) -6)?
Answer: The cAMP % was 18.6989% and 7.716% and 19.1803% and 0.2165% and 6.6608% and -0.2253% and 39.9126% and 18.2077% and 19.9668%.

Question: What about the cAMP % (hMOR [2]; Log[drug] (M) -7) of the same compound?
Answer: The cAMP % was 12.0186% and 17.6725% and 14.4534% and 3.531% and 0.1326% and -1.3668% and -1.063% and 7.0578% and -1.6001%.

Question: And the cAMP % (hMOR [2]; Log[drug] (M) -8)?
Answer: Its cAMP % is 3.165% and 4.1647% and 7.3741% and 8.619% and 14.9301% and 11.6764% and -5.609% and -5.366% and 10.9759%.

Question: What about the cAMP % (hMOR [2]; Log[drug] (M) -9) of the same compound?
Answer: Its cAMP % is 2.317% and -1.298% and -1.019% and -2.259% and -7.165% and 10.2432% and 25.8292% and 21.9013% and 22.3959%.

Question: And the cAMP % (hMOR [2]; Log[drug] (M) -10)?
Answer: The cAMP % was 4.34% and -1.394% and 4.504% and 1.432% and 0.8602% and -2.292% and 0.6443% and 11.4211% and 26.9944%.

Question: And the cAMP % (hMOR [2]; Log[drug] (M) -11)?
Answer: Its cAMP % is 6.752% and 9.529% and 9.016% and 11.4512% and -5.469% and 12.8282% and 13.3991% and 6.363% and 12.7423%.

Question: What about the cAMP % (hMOR [2]; [3]) of the same compound?
Answer: Its cAMP % is 4.239% and 4.052% and 15.2175% and 4.859% and 6.721% and 16.8511% and 4.407% and 8.458% and 8.078%.

Question: What about the “Agonist activity of 7OH analogs at mDOR” value (mDOR; Log[drug] (M) -5) of the same compound?
Answer: The value was 13.8013 and 18.9976 and 33.2307 and 22.3286 and 13.395 and 16.9068 and 13.8361 and 11.2191 and 18.2655.

Question: What about the “Agonist activity of 7OH analogs at mDOR” value (mDOR; Log[drug] (M) -6) of the same compound?
Answer: The value was 28.5316 and 7.81 and 20.2665 and 20.4093 and 17.1261 and 17.3487 and 14.4976 and 7.195 and 12.5927.

Question: And the “Agonist activity of 7OH analogs at mDOR” value (mDOR; Log[drug] (M) -7)?
Answer: Its value is 11.1893 and 13.4547 and 27.5656 and 14.54 and 12.7942 and 5.698 and 4.253 and 2.065 and 7.661.

Question: And the “Agonist activity of 7OH analogs at mDOR” value (mDOR; Log[drug] (M) -8)?
Answer: The value was 10.5957 and 18.0747 and 9.651 and 4.935 and -3.078 and 4.75 and 6.109 and 1.285 and 9.808.

Question: What about the “Agonist activity of 7OH analogs at mDOR” value (mDOR; Log[drug] (M) -9) of the same compound?
Answer: The value was 17.3278 and 15.5005 and 47.145 and -2.094 and 7.434 and -5.339 and 5.642 and -1.53 and 3.1.

Question: And the “Agonist activity of 7OH analogs at mDOR” value (mDOR; Log[drug] (M) -10)?
Answer: Its value is 8.93 and 5.939 and 6.52 and 4.461 and 5.129 and -1.733 and 2.478 and 3.975 and -1.971.

Question: What about the “Agonist activity of 7OH analogs at mDOR” value (mDOR; Log[drug] (M) -11) of the same compound?
Answer: Its value is 10.869 and 6.17 and -5.4274 and 13.8383 and 9.771 and 11.6667 and 2.792 and -1.117 and -1.6751.

Question: And the “Agonist activity of 7OH analogs at mDOR” value (mDOR; Log[drug] (M) -13)?
Answer: Its value is -4.49 and 2.526 and 1.964 and 13.4101 and 7.388 and 17.2326 and -5.081 and 4.508 and 13.385.

Question: What about the Emax (mDOR; mDOR cAMP BRET, positive control DPDPE) of the same compound?
Answer: Its Emax is “very low efficacy”.

Question: What about the “Agonist activity of 7OH analogs at rKOR” value (rKOR; Log [drug](M) -5) of the same compound?
Answer: The value was 25.6296 and -9.743 and 0.6611 and 8.628 and -4.988 and 6.198 and 4.323 and 3.4884 and 6.258.

Question: What about the “Agonist activity of 7OH analogs at rKOR” value (rKOR; Log [drug](M) -6) of the same compound?
Answer: The value was 5.472 and -3.314 and -2.157 and 12.7013 and 24.7501 and 18.1661 and 1.856 and -1.539 and -0.3161.

Question: And the “Agonist activity of 7OH analogs at rKOR” value (rKOR; Log [drug](M) -7)?
Answer: The value was 4.7985 and -15.0915 and 10.4804 and 13.2829 and 19.8014 and 0.6752 and 3.169 and 0.0803 and -0.9699.
